Publication PMC4080982, “Interactions of antagonists with subtypes of inositol 1,4,5-trisphosphate (IP3) receptor” (British Journal of Pharmacology, 2014)

Legend:
[1] = target: T1, rat IP3R1 (Rattus norvegicus, UniProt P29994); test: IP3-evoked Ca^2+ release from permeabilized DT40-IP3R1 cells; type: cell-based
T1 construct: different for NTs (NT2 > NT1 > > NT3) and full-length IP3Rs (IP3R3 > IP3R1 ≥ IP3R2); expressed in transfected cells
Procedure: (§1) We used DT40 cells lacking endogenous IP3Rs (Sugawara et al., [1997]), but stably expressing rat IP3R1 (GenBank accession number GQ233032.1; Pantazaka and Taylor, [2011]), mouse IP3R2 (GU980658.1; Tovey et al., [2010]) or rat IP3R3 (GQ233031.1; Rahman et al., [2009]). Cells were grown in suspension in RPMI 1640 medium supplemented with 10% FBS, 1% heat-inactivated chicken serum, 2 mM glutamine and 50 μM 2-mercaptoethanol at 37°C in humidified air containing 5% CO2. Cells were used or passaged when they reached a density of ∼1.5 × 10^6 cells mL^−1.
(§2) A low-affinity Ca^2+ indicator trapped within the ER of permeabilized DT40 cells was used to measure IP3-evoked Ca^2+ release (Tovey et al., [2006]; Saleem et al., [2012]). Briefly, the ER was loaded with indicator by incubating cells (∼5 × 10^7 mL^−1) in the dark with Mag-fluo-4AM (20 μM) in HEPES-buffered saline (HBS) containing 0.02% (v/v) Pluronic F127 for 1 h at 22°C. HBS had the following composition: 135 mM NaCl, 5.9 mM KCl, 11.6 mM HEPES, 1.5 mM CaCl2, 11.5 mM glucose, 1.2 mM MgCl2, pH 7.3. After permeabilization of the plasma membrane with saponin (10 μg·mL^−1, 4 min, 37°C) in Ca^2+-free cytosol-like medium (CLM), permeabilized cells were washed (650× g, 2 min) and resuspended (∼10^7 mL^−1) in Mg^2+-free CLM containing carbonyl cyanide 4-(trifluoromethoxy) phenylhydrazone (FCCP, 10 μM) to inhibit mitochondria, and supplemented with CaCl2 to give a final free [Ca^2+] of 220 nM after addition of 1.5 mM MgATP. Ca^2+-free CLM had the following composition: 2 mM NaCl, 140 mM KCl, 1 mM EGTA, 20 mM PIPES, 2 mM MgCl2, pH 7.0. Permeabilized cells were then distributed into 96-well plates (50 μL, 5 × 10^5 cells per well), centrifuged (300× g, 2 min) and used for experiments at 20°C. Addition of MgATP (1.5 mM) allowed Ca^2+ uptake by the ER, which was monitored at intervals of ∼1 s using a FlexStation-3 plate reader (MDS Analytical Devices, Berkshire, UK; Tovey et al., [2006]). After 2 min, when the ER had loaded to steady-state with Ca^2+, IP3 was added with CPA (10 μM) to inhibit further Ca^2+ uptake. IP3-evoked Ca^2+ release was expressed as a fraction of that released by ionomycin (1 μM; Tovey et al., [2006]). Similar methods were used to measure IP3-evoked Ca^2+ release from intact or permeabilized HEK cells (Tovey et al., [2008]). The timings of antagonist additions are described in the figure legends. The affinity of each competitive antagonist (pKD) was determined from the intercept on the abscissa of the Schild plot.
(§3) Concentration–effect relationships were fitted to Hill equations using Prism (version 5.0, GraphPad, San Diego, CA, USA), from which Hill coefficients (h), the fraction of the intracellular Ca^2+ stores released by a maximally effective concentrations of IP3, and pEC50 values were calculated.

[2] = target: T2, mouse IP3R2 (Mus musculus, UniProt Q9Z329); test: IP3-evoked Ca^2+ release from permeabilized DT40-IP3R2 cells; type: cell-based
T2 construct: different for NTs (NT2 > NT1 > > NT3) and full-length IP3Rs (IP3R3 > IP3R1 ≥ IP3R2); expressed in transfected cells
T2 sequence (Q9Z329 whole entry): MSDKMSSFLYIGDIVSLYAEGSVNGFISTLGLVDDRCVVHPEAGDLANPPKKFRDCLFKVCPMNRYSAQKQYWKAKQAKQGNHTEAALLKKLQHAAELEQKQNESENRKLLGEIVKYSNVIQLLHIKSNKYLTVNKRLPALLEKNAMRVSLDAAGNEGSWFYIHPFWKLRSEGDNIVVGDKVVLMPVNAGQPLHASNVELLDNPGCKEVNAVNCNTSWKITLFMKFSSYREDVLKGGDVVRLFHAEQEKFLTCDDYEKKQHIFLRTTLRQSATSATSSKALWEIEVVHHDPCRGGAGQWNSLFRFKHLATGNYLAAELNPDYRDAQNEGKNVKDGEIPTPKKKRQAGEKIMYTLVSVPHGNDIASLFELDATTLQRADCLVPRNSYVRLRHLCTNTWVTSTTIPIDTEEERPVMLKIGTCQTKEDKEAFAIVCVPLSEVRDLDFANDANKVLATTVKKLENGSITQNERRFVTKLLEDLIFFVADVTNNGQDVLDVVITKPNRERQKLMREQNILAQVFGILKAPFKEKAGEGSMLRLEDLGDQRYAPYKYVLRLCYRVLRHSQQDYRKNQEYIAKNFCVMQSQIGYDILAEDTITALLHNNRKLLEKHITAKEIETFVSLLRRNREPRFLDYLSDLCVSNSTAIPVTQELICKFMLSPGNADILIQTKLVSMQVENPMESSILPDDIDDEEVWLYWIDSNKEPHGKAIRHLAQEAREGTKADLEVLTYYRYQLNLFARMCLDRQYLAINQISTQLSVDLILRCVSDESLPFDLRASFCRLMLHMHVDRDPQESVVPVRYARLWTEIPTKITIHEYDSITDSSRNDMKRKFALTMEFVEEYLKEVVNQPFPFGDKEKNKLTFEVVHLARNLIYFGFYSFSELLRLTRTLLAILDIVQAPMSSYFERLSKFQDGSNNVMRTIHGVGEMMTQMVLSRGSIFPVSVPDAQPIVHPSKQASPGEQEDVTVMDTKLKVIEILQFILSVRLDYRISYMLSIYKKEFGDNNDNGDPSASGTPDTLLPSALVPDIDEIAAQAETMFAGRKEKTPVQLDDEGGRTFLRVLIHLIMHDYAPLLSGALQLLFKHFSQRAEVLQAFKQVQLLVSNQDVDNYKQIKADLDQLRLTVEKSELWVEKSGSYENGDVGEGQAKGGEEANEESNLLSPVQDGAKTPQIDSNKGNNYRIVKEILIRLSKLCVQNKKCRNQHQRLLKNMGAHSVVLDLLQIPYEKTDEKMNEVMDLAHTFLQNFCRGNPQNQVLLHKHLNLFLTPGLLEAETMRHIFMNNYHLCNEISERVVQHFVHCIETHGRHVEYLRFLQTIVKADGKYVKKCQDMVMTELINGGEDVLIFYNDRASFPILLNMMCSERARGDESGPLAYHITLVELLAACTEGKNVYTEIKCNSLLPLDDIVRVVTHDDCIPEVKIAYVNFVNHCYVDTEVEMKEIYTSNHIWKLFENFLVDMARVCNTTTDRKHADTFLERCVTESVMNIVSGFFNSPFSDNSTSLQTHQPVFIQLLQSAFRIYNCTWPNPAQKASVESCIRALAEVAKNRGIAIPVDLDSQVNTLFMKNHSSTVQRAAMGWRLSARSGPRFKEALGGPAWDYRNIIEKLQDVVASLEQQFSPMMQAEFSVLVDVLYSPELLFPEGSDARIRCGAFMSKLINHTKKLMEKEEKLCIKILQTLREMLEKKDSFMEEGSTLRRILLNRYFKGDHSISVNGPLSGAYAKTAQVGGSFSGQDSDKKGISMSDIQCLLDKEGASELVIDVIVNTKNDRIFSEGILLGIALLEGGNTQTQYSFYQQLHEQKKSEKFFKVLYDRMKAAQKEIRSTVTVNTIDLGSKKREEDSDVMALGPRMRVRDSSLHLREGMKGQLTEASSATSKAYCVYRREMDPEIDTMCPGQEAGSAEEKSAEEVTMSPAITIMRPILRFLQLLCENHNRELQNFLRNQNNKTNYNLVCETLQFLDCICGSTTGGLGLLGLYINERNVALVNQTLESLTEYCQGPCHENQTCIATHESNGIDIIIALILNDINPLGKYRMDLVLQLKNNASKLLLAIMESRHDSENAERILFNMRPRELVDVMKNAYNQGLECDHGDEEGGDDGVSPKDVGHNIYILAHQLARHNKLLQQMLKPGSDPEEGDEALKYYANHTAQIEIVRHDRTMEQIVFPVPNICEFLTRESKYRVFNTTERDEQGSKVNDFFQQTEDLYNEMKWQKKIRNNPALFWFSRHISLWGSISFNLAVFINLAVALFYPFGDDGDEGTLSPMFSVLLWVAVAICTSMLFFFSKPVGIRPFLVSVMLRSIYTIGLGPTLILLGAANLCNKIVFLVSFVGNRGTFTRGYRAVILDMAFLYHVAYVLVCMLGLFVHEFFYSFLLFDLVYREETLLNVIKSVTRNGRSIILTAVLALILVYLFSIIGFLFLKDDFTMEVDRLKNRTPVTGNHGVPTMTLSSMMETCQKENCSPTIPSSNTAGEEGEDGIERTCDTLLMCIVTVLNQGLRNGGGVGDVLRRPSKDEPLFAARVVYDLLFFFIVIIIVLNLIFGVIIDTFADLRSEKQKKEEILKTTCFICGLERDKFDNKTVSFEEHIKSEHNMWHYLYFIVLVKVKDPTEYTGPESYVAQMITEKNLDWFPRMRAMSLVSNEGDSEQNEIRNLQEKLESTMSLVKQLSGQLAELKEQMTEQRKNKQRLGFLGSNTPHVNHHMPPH
Procedure: as §1, §2, §3

[3] = target: T3, rat IP3R3 (Rattus norvegicus, UniProt Q63269); test: IP3-evoked Ca^2+ release from permeabilized DT40-IP3R3 cells; type: cell-based
T3 construct: different for NTs (NT2 > NT1 > > NT3) and full-length IP3Rs (IP3R3 > IP3R1 ≥ IP3R2); expressed in transfected cells
Procedure: as §1, §2, §3

[4] = target: T4, NT2 (residues 1–604 of mouse IP3R2) (Mus musculus, UniProt Q9Z329); test: Equilibrium-competition binding with ^3H-IP3 to purified NT2; settings: NT versus corresponding full-length IP3R
T4 construct: N-terminal fragments (NT, residues 1–604) of rat IP3R1, mouse IP3R2 and rat IP3R3; GST (cleaved yes); made in house; host or cells: E. coli BL21-CodonPlus (DE3)-RILP
T4 sequence (Q9Z329 1-604): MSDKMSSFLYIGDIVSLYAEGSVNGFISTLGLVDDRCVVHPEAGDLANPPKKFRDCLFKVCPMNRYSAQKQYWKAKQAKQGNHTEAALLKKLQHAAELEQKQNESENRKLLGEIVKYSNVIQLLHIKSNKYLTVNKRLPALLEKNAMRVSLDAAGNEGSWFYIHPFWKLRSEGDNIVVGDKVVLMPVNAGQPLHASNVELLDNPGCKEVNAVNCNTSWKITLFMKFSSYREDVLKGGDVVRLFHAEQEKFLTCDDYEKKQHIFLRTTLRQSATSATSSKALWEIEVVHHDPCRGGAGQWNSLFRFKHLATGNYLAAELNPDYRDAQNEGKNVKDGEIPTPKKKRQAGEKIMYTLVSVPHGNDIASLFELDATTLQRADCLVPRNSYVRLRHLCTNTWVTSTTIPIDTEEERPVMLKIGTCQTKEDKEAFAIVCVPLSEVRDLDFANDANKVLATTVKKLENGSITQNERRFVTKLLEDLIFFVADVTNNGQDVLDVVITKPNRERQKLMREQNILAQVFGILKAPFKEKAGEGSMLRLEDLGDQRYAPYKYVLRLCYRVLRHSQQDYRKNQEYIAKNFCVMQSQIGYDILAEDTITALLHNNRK
Procedure: The plasmids used for bacterial expression of GST-tagged N-terminal fragments (NT, residues 1–604) of rat IP3R1, mouse IP3R2 and rat IP3R3 have been described, and their coding sequences have been confirmed (Khan et al., [2013]). Plasmids were transformed into BL21-CodonPlus (DE3)-RILP competent cells (Rossi and Taylor, [2011]), and grown for 12 h at 37°C in 20 mL of Luria-Bertani (LB) medium containing carbecillin (50 μg·mL^−1). The volume of medium was then increased to 1 L, and the incubation was continued at 37°C for 3–4 h until the OD600 reached 1–1.5. Protein expression was induced by addition of IPTG (0.5 mM) for 20 h at 15°C. Bacteria were harvested (6000× g, 5 min), washed twice with cold PBS, and the pellet was suspended (∼10^9 cells·mL^−1) in 50 mL of Tris-EDTA medium (TEM: 50 mM Tris, 1 mM EDTA, pH 8.3) supplemented with 10% PopCulture, 1 mM 2-mercaptoethanol and protease inhibitor cocktail (Roche, Burgess Hill, West Sussex, UK; 1 tablet per 50 mL). […]
(§4) Reactions were terminated after 5 min by centrifugation (20,000× g, 5 min) for membranes, or by centrifugation after addition of poly(ethylene glycol)-8000 [30% (w/v), 500 μL] and γ-globulin (30 μL, 25 mg·mL^−1) for NT. […] Results were fitted to Hill equations using Prism, from which IC50 values were calculated.

[5] = test system: permeabilized DT40-IP3R1-3 cells; test: Ca^2+ uptake and Ca^2+ content of the intracellular stores of permeabilized DT40 cells; type: cell-based
Procedure: Briefly, the ER was loaded with indicator by incubating cells (∼5 × 10^7 mL^−1) in the dark with Mag-fluo-4AM (20 μM) in HEPES-buffered saline (HBS) containing 0.02% (v/v) Pluronic F127 for 1 h at 22°C. […] Ca^2+-free CLM had the following composition: 2 mM NaCl, 140 mM KCl, 1 mM EGTA, 20 mM PIPES, 2 mM MgCl2, pH 7.0. Permeabilized cells were then distributed into 96-well plates (50 μL, 5 × 10^5 cells per well), centrifuged (300× g, 2 min) and used for experiments at 20°C. […] After 2 min, when the ER had loaded to steady-state with Ca^2+, IP3 was added with CPA (10 μM) to inhibit further Ca^2+ uptake. […] The timings of antagonist additions are described in the figure legends. The affinity of each competitive antagonist (pKD) was determined from the intercept on the abscissa of the Schild plot.

[6] = test system: cerebellar membranes (IP3R1); test: ^3H-IP3 binding to cerebellar membranes; settings: ^3H-IP3 1.5 nM, in CLM
Procedure: as §4

[7] = test system: HEK cells; test: Carbachol-evoked Ca^2+ signals in intact HEK cells; type: cell-based; settings: Homo sapiens, HEK293; intact fluo-4-loaded HEK cells; control cells; read-out: pEC50 for the carbachol-evoked Ca^2+ signals (converted)
Procedure: as §2

[8] = IP3R1, AdA-evoked Ca^2+ release
[9] = IP3R1, IP3-evoked Ca^2+ release
[10] = IP3R1, heparin 400 μg·mL^−1, Δ = control – response with antagonist
[11] = IP3R2, IP3-evoked Ca^2+ release
[12] = IP3R3, AdA-evoked Ca^2+ release

## Heparin
[1]; [8]
  KD for heparin (Schild plot): 6.9 µg/mL
  slope of the Schild plots: 0.94 ± 0.03
[1]; [9]
  KD for heparin (Schild plot): 4.1 µg/mL
  slope of the Schild plots: 0.95 ± 0.02
[1]; [10]
  ΔMax: −7 ± 2%
  ΔpEC50: 1.88 ± 0.05 M
[1]; IP3R1, paired comparisons
  pEC50(IP3)-pKD(heparin): 2.08 ± 0.02
[2]; [11]
  KD for heparin (Schild plot): 22 µg/mL
  slope of the Schild plots: 0.97 ± 0.06
[2]; IP3R2, heparin 800 μg·mL^−1
  ΔMax: −4 ± 2%
  ΔpEC50: 1.49 ± 0.09 M
[2]; IP3R2, paired comparisons
  pEC50(IP3)-pKD(heparin): 2.16 ± 0.09
[3]; [12]
  KD for heparin (Schild plot): 2.1 µg/mL
  slope of the Schild plots: 0.98 ± 0.04
[3]; IP3R3, IP3-evoked Ca^2+ release
  slope of the Schild plots: 1.14 ± 0.41
[3]; IP3R3, IP3-evoked Ca^2+ release, 40% Ca^2+ release
  KD for heparin (Schild plot): 2.8 µg/mL
[3]; IP3R3, heparin 400 μg·mL^−1
  ΔMax: −3 ± 3%
  ΔpEC50: 2.34 ± 0.07 M
[3]; IP3R3, paired comparisons
  pEC50(IP3)-pKD(heparin): 1.11 ± 0.08
[4]
  affinity of the NT for heparin relative to that measured in functional analyses / full-length IP3R: up to 2000 fold

## NCCOB(c1ccccc1)c1ccccc1 [2-APB, 2-aminoethoxydiphenyl borate]
[1]; IP3R1, 2-APB 50 μM
  ΔMax: 0 ± 4%
[1]; IP3R1, 2-APB 50 μM added 35 s before IP3
  ΔpEC50: 0.84 ± 0.12 M
[2]; DT40-IP3R2 cells, 2-APB 50 μM
  effect on IP3-evoked Ca^2+ release: no significant effect
[2]; IP3R2, 2-APB 50 μM
  ΔMax: 0 ± 4%
[2]; IP3R2, 2-APB 100 μM
  effect on IP3-evoked Ca^2+ release: no effect
[5]; permeabilized DT40-IP3R1 cells, 50 μM 2-APB
  effect on Ca^2+ uptake by the ER: no effect
[5]; permeabilized DT40-IP3R1 cells, 2-APB concentrations higher than 50 μM
  effect on steady-state Ca^2+ content of the ER: reduced the steady-state Ca^2+ content
[3]; DT40-IP3R3 cells, 2-APB 50 μM
  effect on IP3-evoked Ca^2+ release: no significant effect
[3]; IP3R3, 2-APB 50 μM
  ΔMax: 8 ± 4%
  ΔpEC50: 0.02 ± 0.09 M
[3]; IP3R3, 2-APB 100 μM
  effect on IP3-evoked Ca^2+ release: some inhibition
[6]
  effect on binding of ^3H-IP3 to cerebellar membranes: unaffected

## Nc1ncnc2c1ncn2[C@@H]1O[C@H](CO)[C@@H](O[C@H]2O[C@H](CO)[C@@H](OP(=O)(O)O)[C@H](OP(=O)(O)O)[C@H]2O)[C@H]1OP(=O)(O)O [AdA, adenophostin A]
[1]; permeabilized DT40-IP3R1 cells, read-out: pEC50 (IP3 or AdA-evoked Ca^2+ release) (converted)
  EC50: 0.00447 µM
[3]; permeabilized DT40-IP3R3 cells, read-out: pEC50 (IP3 or AdA-evoked Ca^2+ release) (converted)
  EC50: 0.0195 µM

## C[N+](C)(C)CCOC(N)=O [carbachol, Carbachol]
[7]
  EC50: 10.2 µM

## Cn1c(=O)c2c(ncn2C)n(C)c1=O [Caffeine]
[5]; DT40-IP3R1-3 cells, caffeine 70 mM added 2 min before ATP
  effect on Ca^2+ content of the intracellular stores: significantly reduced
[6]
  effect on binding of ^3H-IP3 to cerebellar membranes: without affecting
